# Measurements published in patent US10752656B2, “Anti-microbial supramolecular structures” (Northwestern University, priority 2016, dated 2020).
# Non-standard residues stand in square brackets, D forms with d. Residues, ends and D or L forms follow the SMILES beside them. *: point of attachment. Phe(F5) = N[C@@H](Cc1c(F)c(F)c(F)c(F)c1F)C(=O)O; Palmitoyl = CCCCCCCCCCCCCCCC(=O)*
# Assays:
# [1] = Rheological experiment on PA gels formed with CaCl2; format: physicochemical; conditions: 5 mM PA gelled with 0.2 M CaCl2, 100 Hz, 0.5% strain, 25° C.
# Procedure: The mechanical property of the PAs was evaluated by performing rheological studies. 25 μL of 0.2 M CaCl2 were added to gel 250 μL of 5 mM PA MilliQ-water solution aged for 2 days on the rheometer. Tests were performed at 100 Hz with 0.5% strain at 25° C., using a 25 mm parallel plate with a 0.5 mm gap distance. The storage moduli used were taken from the time test at 5000 seconds. Frequency sweeps were done at a constant strain of 0.5%, and strain sweeps were done at a frequency of 100 Hz. The plateau modulus was determined as 10, 7.5, 7.5, and 2.8 kPa for parent PA, PA Z1, Z2, and Z3, respectively.
# Staphylococcus aureus = format: cell-based
# Procedure: S. aureus (ATCC 25923) (American Type Culture Collection, Manassas, Va.) was cultured in LB broth overnight at 37° C. The suspension of the overnight culture was inoculated in fresh LB broth and cultured under aerobic conditions until reaching an OD600 value of approximately 0.5 (exponential growth phase). The bacterial cells were harvested by centrifugation at 1,500×g for 10 min, washed thrice with PBS, and re-suspended in the appropriate solution for experiment. The bacterial cell suspensions were diluted to an OD600 value of 0.1, which corresponds to 1×10^7 CFU/mL for S. aureus. Before experiment, the bacterial cells were then diluted 1:10 with PBS unless otherwise noted.
# The MIC values of peptide amphiphiles were determined in PBS. The MIC determination was made by the Mueller-Hinton (MH) agar plate method. Two-fold serial dilutions of test compound (peptide amphiphiles) solutions in PBS were firstly made in a 96-well microtiter plate. The test compound concentration ranged from 500 μM to 1 μM with 50 μL volume. Then, 50 μL of S. aureus (1×10^6 CFU/mL) suspended in PBS was added to each well for a final cell density of 5×10^5 CFU/mL. The samples were incubated for 3 hrs at 37° C., and then streaked onto MH agar plates. The plates were incubated overnight at 37° C. and the MIC value was recorded based on the lowest test compound concentration that inhibited colony growth.
# The minimum inhibitory concentration (MIC) of the PAs against Staphylococcus aureus was determined to estimate their bioactivity as antimicrobial agents. The bacterial cell density is 5×10^5 CFU/mL, and the concentration of the PA solutions is ranging from 0.3 μM to 500 μM. […], the MIC value for PAs Z1 and Z2 was determined to be 4 μM, while inhibition of the growth of the bacterium after treatment by parent PA and PA Z3 at 500 μM was not observed.
structure (smiles),measurement,setting,value
CCCCCCCCCCCCCCCC(=O)N[C@H](C(=O)N[C@@H](Cc1c(F)c(F)c(F)c(F)c1F)C(=O)N[C@H](C(=O)N[C@@H](C)C(=O)N[C@@H](C)C(=O)N[C@@H](C)C(=O)N[C@@H](CCC(=O)O)C(=O)N[C@@H](CCC(=O)O)C(=O)N[C@@H](CCC(=O)O)C(N)=O)C(C)C)C(C)C [PA Z2] (Palmitoyl-V[Phe(F5)]VAAAEEE-NH2; C-terminus assumed),plateau modulus,[1],7.5 kPa
same,minimum inhibitory concentration (MIC),Staphylococcus aureus,4 µM
CCCCCCCCCCCCCCCC(=O)N[C@H](C(=O)N[C@H](C(=O)N[C@@H](Cc1c(F)c(F)c(F)c(F)c1F)C(=O)N[C@@H](C)C(=O)N[C@@H](C)C(=O)N[C@@H](C)C(=O)N[C@@H](CCC(=O)O)C(=O)N[C@@H](CCC(=O)O)C(=O)N[C@@H](CCC(=O)O)C(N)=O)C(C)C)C(C)C [PA Z3] (Palmitoyl-VV[Phe(F5)]AAAEEE-NH2; C-terminus assumed),plateau modulus,[1],2.8 kPa
same,minimum inhibitory concentration (MIC),Staphylococcus aureus,> 500 µM
"CCCCCCCCCCCCCCCC(=O)N[C@H](C(=O)N[C@H](C(=O)N[C@H](C(=O)N[C@@H](C)C(=O)N[C@@H](C)C(=O)N[C@@H](C)C(=O)N[C@@H](CCC(=O)O)C(=O)N[C@@H](CCC(=O)O)C(=O)N[C@@H](CCC(=O)O)C(N)=O)C(C)C)C(C)C)C(C)C [parent PA, reference compound] (Palmitoyl-VVVAAAEEE-NH2; C-terminus assumed)",plateau modulus,[1],10 kPa
same,minimum inhibitory concentration (MIC),Staphylococcus aureus,> 500 µM
CCCCCCCCCCCCCCCC(=O)N[C@@H](Cc1c(F)c(F)c(F)c(F)c1F)C(=O)N[C@H](C(=O)N[C@H](C(=O)N[C@@H](C)C(=O)N[C@@H](C)C(=O)N[C@@H](C)C(=O)N[C@@H](CCC(=O)O)C(=O)N[C@@H](CCC(=O)O)C(=O)N[C@@H](CCC(=O)O)C(N)=O)C(C)C)C(C)C [PA Z1] (Palmitoyl-[Phe(F5)]VVAAAEEE-NH2; C-terminus assumed),plateau modulus,[1],7.5 kPa
same,minimum inhibitory concentration (MIC),Staphylococcus aureus,4 µM
